How the values were obtained:
[1] = test system: FFD mice; experiment: Hepatic steatosis (% vacuolation area, H&E morphometry) in fast food diet (FFD) mouse model of NASH; format: in vivo, male C57BL/6 mice; settings: Formula (I) 0.15% admixture in diet, Formula (III) 10 mg/kg PO QD, months 7-10
Experimental: The following study was conducted to evaluate the efficacy of the combination of an ASK1 inhibitor and an FXR agonist in a mouse model of non-alcoholic steatohepatitis (NASH), relative to the efficacy of the individual agents alone in the model. NASH was induced in male C57BL/6 mice by chronic administration of a “fast food” diet (FFD) high in saturated fats, cholesterol and sugars for a total of 10 months, whereas lean control animals were maintained on a normal chow diet. A NASH phenotype was established in FFD mice compared to control mice by 7 months, and was characterized by obesity, hypercholesterolemia, and AST/ALT elevation; and by histological features of NASH such as hepatocellular macrovesicular steatosis and ballooning degeneration. […] Endpoint analyses included morphometric quantification of liver steatosis (% of steatotic area), liver cholesterol content, serum ALT/AST levels, serum bile acid levels, and nanostring evaluation of gene expression. […] Extent of steatosis was determined on H&E stained tissue sections using the Definiens Developer software package. […] The number and size of these areas were enumerated and the total steatotic area was expressed as a percentage of total liver tissue cross-sectional area. […]

[2] = test system: FFD mice; experiment: Plasma bile acids by LC-MS/MS in FFD mouse model of NASH; format: in vivo, male C57BL/6 mice; settings: Formula (I) 0.15% admixture in diet, Formula (III) 10 mg/kg PO QD, months 7-10
Experimental: The following study was conducted to evaluate the efficacy of the combination of an ASK1 inhibitor and an FXR agonist in a mouse model of non-alcoholic steatohepatitis (NASH), relative to the efficacy of the individual agents alone in the model. NASH was induced in male C57BL/6 mice by chronic administration of a “fast food” diet (FFD) high in saturated fats, cholesterol and sugars for a total of 10 months, whereas lean control animals were maintained on a normal chow diet. A NASH phenotype was established in FFD mice compared to control mice by 7 months, and was characterized by obesity, hypercholesterolemia, and AST/ALT elevation; and by histological features of NASH such as hepatocellular macrovesicular steatosis and ballooning degeneration. See Charlton M, et al. Fast food diet mouse: novel small animal model of NASH with ballooning, progressive fibrosis, and high physiological fidelity to the human condition. American journal of physiology. Gastrointestinal and liver physiology 2011; 301 (5):G825-34. […] Endpoint analyses included morphometric quantification of liver steatosis (% of steatotic area), liver cholesterol content, serum ALT/AST levels, serum bile acid levels, and nanostring evaluation of gene expression. […] Plasma samples were sent to Metabolon, Inc. (Durham, N.C.) for quantification of primary and secondary bile acids and their conjugates by LC-MS/MS.

SMILES | reduction in steatosis (H&E stained liver sections) [1] [%] | reduction in plasma bile acid levels [2] [%]
O=C(Nc1cccc(-c2nncn2C2CC2)c1)c1cc(-n2cnc(C3CC3)c2)ccn1 [Formula (I)] | 39 | 52
O=C(O)c1ccnc(N2CC(O)(c3ccc(OCc4c(-c5c(Cl)cccc5Cl)noc4C4CC4)cc3Cl)C2)c1 [Formula (III)] | 27 | 46

— patent publication US20180133203A1, “METHODS OF TREATING LIVER DISEASE” (Gilead Sciences, Inc., priority 2016, published 2018)
